One assay addresses T1, IDO1 (Homo sapiens, UniProt P14902).
T1 construct: HeLa cells were treated with a test compound in the presence of IFNγ, which induces IDO1 expression; host or cells: H1-HeLa cells, IDO1 induced with IFNγ
The experiment in a line: Cell-based (HeLa) assay for measurement of IDO1 inhibition (kynurenine levels in supernatant after IFNγ induction). The conditions noted are these: HeLa cells, IFNγ-induced IDO1, kynurenine in supernatant after 48 hour incubation; geometric mean of a minimum of four determinations. In short, it runs like this:
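IDO1 activity is read as kynurenine released into the medium, detected with Ehrlich's reagent (p-dimethylaminobenzaldehyde) at 480 nm after TCA treatment. HeLa cells were exposed 48 h to compounds in 0.5% DMSO alongside IFNγ induction. Values normalized to no-IFNγ and IFNγ controls; four-parameter EC50 given as geometric mean of ≥4 determinations.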
T1 sequence (P14902 whole entry): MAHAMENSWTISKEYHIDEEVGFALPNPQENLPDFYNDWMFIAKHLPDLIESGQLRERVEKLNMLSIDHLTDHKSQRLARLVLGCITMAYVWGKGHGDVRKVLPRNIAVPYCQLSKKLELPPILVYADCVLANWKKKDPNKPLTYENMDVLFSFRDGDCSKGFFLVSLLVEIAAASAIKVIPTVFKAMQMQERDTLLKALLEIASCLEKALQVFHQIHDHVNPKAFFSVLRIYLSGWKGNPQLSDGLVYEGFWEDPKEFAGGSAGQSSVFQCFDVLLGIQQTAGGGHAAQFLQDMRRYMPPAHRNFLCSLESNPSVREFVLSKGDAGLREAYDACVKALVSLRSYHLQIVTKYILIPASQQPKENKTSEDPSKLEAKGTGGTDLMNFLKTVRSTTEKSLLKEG
In general, EC50 refers to the concentration needed to bring the measured effect to its halfway point. Read a low EC50 as greater potency. Consider `CCc1nc2nccc(/C(=N/O)Nc3ccc(F)c(Cl)c3)c2[nH]1` [Example 108, N-(3-Chloro-4-fluorophenyl)-2-ethyl-N′-hydroxy-1H-imidazo[4,5-b]pyridine-7-carboximidamide], for which the EC50 came to 3190 nM.
For `CS(=O)(=O)NCc1nc2nccc(/C(=N/O)Nc3ccc(F)c(Cl)c3)c2[nH]1` [Example 181, N-(3-Chloro-4-fluorophenyl)-N′-hydroxy-2-(methylsulfonamidomethyl)-1H-imidazo[4,5-b]pyridine-7-carboximidamide], the EC50 came out at 8970 nM.
Same read-out and setting: for `CC(C)NCc1nc2c(F)c(F)cc(/C(=N/O)Nc3cccc(Cl)c3)c2[nH]1` [Example 27, N-(3-Chlorophenyl)-4,5-difluoro-N′-hydroxy-2-((isopropylamino)methyl)-1H-benzo[d]imidazole-7-carboximidamide] the value was 839 nM.
On the same count and under the same terms, for `Nc1nc2c(F)c(F)cc(/C(=N/O)Nc3cccc(Br)c3)c2[nH]1` [Example 15, 2-Amino-N-(3-bromophenyl)-4,5-difluoro-N′-hydroxy-1H-benzo[d]imidazole-7-carboximidamide] the value was 570 nM; for `CN1CCCC(c2nc3c(F)c(F)cc(/C(=N/O)Nc4cccc(Cl)c4)c3[nH]2)C1` (stereo not drawn) [Example 44, N-(3-Chlorophenyl)-4,5-difluoro-N′-hydroxy-2-(1-methylpiperidin-3-yl)-1H-benzo[d]imidazole-7-carboximidamide], 1650 nM; for `O/N=C(\Nc1ccc(F)c(Cl)c1)c1ccnc2nc(NC3CCOC3)[nH]c12` (stereo not drawn) [Example 227, N-(3-chloro-4-fluorophenyl)-N′-hydroxy-2-((tetrahydrofuran-3-yl)amino)-1H-imidazo[4,5-b]pyridine-7-carboximidamide], 2190 nM.
Still for that read-out and setting: to `C#Cc1cccc(N/C(=N\O)c2ccnc3nc[nH]c23)c1` [Example 95, N-(3-ethynylphenyl)-N′-hydroxy-1H-imidazo[4,5-b]pyridine-7-carboximidamide] belongs 302 nM; to `CN(CCc1nc2nccc(/C(=N/O)Nc3ccc(F)c(Cl)c3)c2[nH]1)CC1CC1` [Example 186, N-(3-Chloro-4-fluorophenyl)-2-(2-((cyclopropylmethyl)(methyl)amino)ethyl)-N′-hydroxy-1H-imidazo[4,5-b]pyridine-7-carboximidamide], 565 nM; to `O/N=C(\Nc1ccc(Cl)cc1)c1ccnc2nc[nH]c12` [Example 87, N-(4-Chlorophenyl)-N′-hydroxy-1H-imidazo[4,5-b]pyridine-7-carboximidamide], 846 nM.
For the compound `O/N=C(\Nc1ccc(F)c(Cl)c1)c1ccnc2nc(NCCNCC(F)F)[nH]c12` [Example 230, N-(3-chloro-4-fluorophenyl)-2-((2-((2,2-difluoroethyl)amino)ethyl)amino)-N′-hydroxy-1H-imidazo[4,5-b]pyridine-7-carboximidamide], the concentration giving a half-maximal response (EC50) amounted to 3840 nM.
Compound `CNc1nc2nccc(/C(=N/O)Nc3ccc(F)c(Br)c3)c2[nH]1` [Example 257, N-(3-bromo-4-fluorophenyl)-N′-hydroxy-2-(methylamino)-1H-imidazo[4,5-b]pyridine-7-carboximidamide] registered an EC50 of 241 nM.
As to `O/N=C(\Nc1ccc(F)c(Cl)c1)c1ccnc2nc(CCNC3CC3)[nH]c12` [Example 207, N-(3-chloro-4-fluorophenyl)-2-(2-(cyclopropylamino)ethyl)-N′-hydroxy-3H-imidazo[4,5-b]pyridine-7-carboximidamide], the EC50 was found to be 1260 nM.
In the case of `O=S(=O)(NCc1nc2nccc(/C(=N/O)Nc3ccc(F)c(Cl)c3)c2[nH]1)c1ccccc1` [Example 180, N-(3-Chloro-4-fluorophenyl)-N′-hydroxy-2-(phenylsulfonamidomethyl)-1H-imidazo[4,5-b]pyridine-7-carboximidamide], the midpoint of the response, the EC50, lay at 1410 nM.
`O/N=C(\Nc1cccc(C(F)(F)F)c1)c1ccnc2nc[nH]c12` [Example 73, N′-Hydroxy-N-(3-(trifluoromethyl)phenyl)-1H-imidazo[4,5-b]pyridine-7-carboximidamide]: a half-maximal response (EC50) required 373 nM.
`O/N=C(\Nc1ccc(F)c(Cl)c1)c1ccnc2nc(NCCN3CCCC3)[nH]c12` [Example 283, N-(3-chloro-4-fluorophenyl)-N′-hydroxy-2-((2-(pyrrolidin-1-yl)ethyl)amino)-1H-imidazo[4,5-b]pyridine-7-carboximidamide] registered an EC50 of 2720 nM.
With `COCCN(C)CCc1nc2nccc(/C(=N/O)Nc3ccc(F)c(Cl)c3)c2[nH]1` [Example 194, N-(3-Chloro-4-fluorophenyl)-N′-hydroxy-2-(2-((2-methoxyethyl)(methyl)amino)ethyl)-1H-imidazo[4,5-b]pyridine-7-carboximidamide], the EC50 was 504 nM.
In the case of `OCc1nc2c(F)c(F)cc(/C(=N/O)Nc3cccc(Cl)c3)c2[nH]1` [Example 29, N-(3-Chlorophenyl)-4,5-difluoro-N′-hydroxy-2-(hydroxymethyl)-1H-benzo[d]imidazole-7-carboximidamide], the EC50 stood at 1540 nM.
On the same count and under the same terms, for `Nc1nc2c(F)ccc(/C(=N/O)Nc3cccc(Br)c3)c2[nH]1` [Example 18, 2-Amino-N-(3-bromophenyl)-4-fluoro-N′-hydroxy-1H-benzo[d]imidazole-7-carboximidamide] the value was 312 nM; for `O/N=C(\Nc1ccc(F)c(Cl)c1)c1ccnc2nc[nH]c12` [Example 59, N-(3-Chloro-4-fluorophenyl)-N′-hydroxy-1H-imidazo[4,5-b]pyridine-7-carboximidamide], 208 nM; for `CNc1nc2nccc(/C(=N/O)Nc3ccc(F)c(Cl)c3)c2[nH]1` [Example 158, N-(3-Chloro-4-fluorophenyl)-N′-hydroxy-2-(methylamino)-1H-imidazo[4,5-b]pyridine-7-carboximidamide], 460 nM.
As for `CC(C)(C)CNCc1nc2nccc(/C(=N/O)Nc3ccc(F)c(Cl)c3)c2[nH]1` [Example 141, N-(3-Chloro-4-fluorophenyl)-N′-hydroxy-2-((neopentylamino)methyl)-1H-imidazo[4,5-b]pyridine-7-carboximidamide], the midpoint of the response, the EC50, lay at 1680 nM.
On the same count and under the same terms, to `O/N=C(\Nc1ccc(F)c(Cl)c1)c1ccnc2nc(N3CC[C@H](O)C3)[nH]c12` [Example 280, (S)—N-(3-chloro-4-fluorophenyl)-N′-hydroxy-2-(3-hydroxypyrrolidin-1-yl)-1H-imidazo[4,5-b]pyridine-7-carboximidamide] belongs > 10000 nM; to `O/N=C(\Nc1ccc(F)c(Cl)c1)c1ccnc2nc(NCCN3CCC3)[nH]c12` [Example 233, 2-((2-(azetidin-1-yl)ethyl)amino)-N-(3-chloro-4-fluorophenyl)-N′-hydroxy-1H-imidazo[4,5-b]pyridine-7-carboximidamide], 1120 nM; to `O/N=C(\Nc1ccc(F)c(Cl)c1)c1ccnc2nc(NCC(F)F)[nH]c12` [Example 225, N-(3-chloro-4-fluorophenyl)-2-((2,2-difluoroethyl)amino)-N′-hydroxy-1H-imidazo[4,5-b]pyridine-7-carboximidamide], 2190 nM.
Same read-out and setting: for `CN(C)CCc1nc2c(/C(=N/O)Nc3cccc(Br)c3)cc(F)c(F)c2[nH]1` [Example 55, N-(3-Bromophenyl)-2-(2-(dimethylamino)ethyl)-6,7-difluoro-N′-hydroxy-1H-benzo[d]imidazole-4-carboximidamide] the value was 379 nM.
The compound `O/N=C(\Nc1ccc(F)c(Cl)c1)c1ccnc2nc(NCCCN3CCOCC3)[nH]c12` [Example 221, N-(3-chloro-4-fluorophenyl)-N′-hydroxy-2-((3-morpholinopropyl)amino)-1H-imidazo[4,5-b]pyridine-7-carboximidamide] came in with an EC50 of 899 nM.

Staying with this assay, now noted: HeLa cells, IFNγ-induced IDO1, kynurenine in supernatant, 48 hour incubation; geometric mean of a minimum of four determinations.
`Cc1nnc(CNc2nc3nccc(/C(=N/O)Nc4ccc(F)c(Cl)c4)c3[nH]2)o1` [Example 427, N-(3-chloro-4-fluorophenyl)-N′-hydroxy-2-(((5-methyl-1,3,4-oxadiazol-2-yl)methyl)amino)-1H-imidazo[4,5-b]pyridine-7-carboximidamide] registered an EC50 of 1070 nM.
`CC(C)N(CCNc1nc2nccc(/C(=N/O)Nc3ccc(F)c(Cl)c3)c2[nH]1)C1CC1` [Example 406, N-(3-chloro-4-fluorophenyl)-2-((2-(cyclopropyl(isopropyl)amino)ethyl)amino)-N′-hydroxy-1H-imidazo[4,5-b]pyridine-7-carboximidamide] registered an EC50 of 185 nM.
As for `Cn1ccnc1CCNc1nc2c(F)c(F)cc(/C(=N/O)Nc3ccc(F)c(Cl)c3)c2[nH]1` [Example 344], the EC50 was 3060 nM.
Still for that read-out and setting: to `CN(C)CCCNc1nc2c(F)c(F)cc(/C(=N/O)Nc3cccc(Cl)c3)c2[nH]1` [Example 385, N-(3-chlorophenyl)-2-((3-(dimethylamino)propyl)amino)-4,5-difluoro-N′-hydroxy-1H-benzo[d]imidazole-7-carboximidamide] belongs 580 nM; to `CC1CCN(C)C(CNc2nc3c(F)c(F)cc(/C(=N/O)Nc4ccc(F)c(Cl)c4)c3[nH]2)C1` (stereo not drawn) [Example 466, N-(3-chloro-4-fluorophenyl)-2-(((1,4-dimethylpiperidin-2-yl)methyl)amino)-4,5-difluoro-N′-hydroxy-1H-benzo[d]imidazole-7-carboximidamide], 685 nM.
Turning to `C[C@@H]1CN(CCNc2nc3nccc(/C(=N/O)Nc4ccc(F)c(Cl)c4)c3[nH]2)C[C@H](C)O1` [Example 478, N-(3-chloro-4-fluorophenyl)-2-((2-((2S,6R)-2,6-dimethylmorpholino)ethyl)amino)-N′-hydroxy-1H-imidazo[4,5-b]pyridine-7-carboximidamide], the EC50 came to 1010 nM.
As for `O/N=C(\Nc1ccc(F)c(Cl)c1)c1ccnc2nc(NCCN3CCC(F)(F)C3)[nH]c12` [Example 491, N-(3-chloro-4-fluorophenyl)-2-((2-(3,3-difluoropyrrolidin-1-yl)ethyl)amino)-N′-hydroxy-1H-imidazo[4,5-b]pyridine-7-carboximidamide], the EC50 turned out to be 917 nM.

Values taken from patent publication US9951065B2 (Gilead Sciences, Inc., priority 2015, dated 2018).
